Literature values in patent US10647965B2, “Hetero-transglycosylase and uses thereof” (BASF SE, priority 2013, dated 2020).

Test system: XTHs (xyloglucan endotransglucosylases)
Conditions: read-out: KM for XXXGol, comparison value, donor not stated

For `OC[C@@H](O)[C@@H](O[C@@H]1O[C@H](CO[C@H]2OC[C@@H](O)[C@H](O)[C@H]2O)[C@@H](O[C@@H]2O[C@H](CO[C@H]3OC[C@@H](O)[C@H](O)[C@H]3O)[C@@H](O[C@@H]3O[C@H](CO[C@H]4OC[C@@H](O)[C@H](O)[C@H]4O)[C@@H](O)[C@H](O)[C@H]3O)[C@H](O)[C@H]2O)[C@H](O)[C@H]1O)[C@H](O)[C@@H](O)CO` [XXXGol, Xyl3.Glc3.glucitol], the Km is given as 50 to 200 µM.
